Source: the supplement of paper PMC8671470

What was measured:
Settings in all cases: 72 h
[1] = test system: myeloid leukemia patient primary cells Pat.15; assay: cell viability (% survival relative to DMSO control); higher = less cytotoxic
In short: (§1)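 Mononuclear cells from patients with AML or CML were thawed, purified on Ficoll and placed in RPMI 1640 with 10% FBS at 10,000 cells/well on 384-well plates. The plates came pre-printed with 70 compounds at five tenfold concentrations spanning 1–10,000 nM, in duplicate, and cells were exposed for 72 h. CellTiter-Glo gave viability, scaled between DMSO wells and wells with 10 μM proteasome inhibitor. Where reported, area under the curve was obtained from log-logistic fits with four parameters using the drc and PharmacoGx R packages.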

[2] = test system: myeloid leukemia patient primary cells Pat.1; assay: as above
In short: as §1

[3] = test system: myeloid leukemia patient primary cells Pat.2; assay: as above
In short: as §1

[4] = test system: myeloid leukemia patient primary cells Pat.7; assay: as above
In short: as §1

[5] = test system: LAMA-84; assay: cell viability (% survival relative to DMSO control, bortezomib = 0%); higher = less cytotoxic
In short: (§2)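 Fifteen myeloid leukaemia cell lines (10 AML, 5 CML) were seeded at a density titrated to the linear growth range into 384-well plates pre-printed with compounds at 1, 10, 100, 1000 or 10000 nM in duplicate. Plates were incubated for 72 h at 37 °C with 5% CO2. Viability was then read by CellTiter-Glo luminescence. Each value is percent survival averaged over the duplicates, with vehicle set to 100% and a 10 µM positive control to 0%.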

[6] = test system: MV4-11; assay: as above
In short: as §2

[7] = test system: NOMO-1; assay: as above
In short: as §2

[8] = test system: myeloid leukemia patient primary cells Pat.10; assay: area under dose-response curve (viability, 1 nM-10 uM) (fraction (0-1)); higher = more sensitive
In short: as §1

[9] = test system: myeloid leukemia patient primary cells Pat.11; assay: as above
In short: as §1

[10] = test system: myeloid leukemia patient primary cells Pat.12; assay: as above
In short: as §1

[11] = test system: myeloid leukemia patient primary cells Pat.13; assay: as above
In short: as §1

[12] = test system: myeloid leukemia patient primary cells Pat.14; assay: as above
In short: as §1

[13] = test system: myeloid leukemia patient primary cells Pat.15; assay: as above
In short: as §1

[14] = test system: myeloid leukemia patient primary cells Pat.1; assay: as above
In short: as §1

[15] = test system: myeloid leukemia patient primary cells Pat.2; assay: as above
In short: as §1

[16] = test system: myeloid leukemia patient primary cells Pat.3; assay: as above
In short: as §1

[17] = test system: myeloid leukemia patient primary cells Pat.4; assay: as above
In short: as §1

[18] = test system: myeloid leukemia patient primary cells Pat.6; assay: as above
In short: as §1

[19] = test system: myeloid leukemia patient primary cells Pat.7; assay: as above
In short: as §1

[20] = test system: myeloid leukemia patient primary cells Pat.8; assay: as above
In short: as §1

[21] = test system: myeloid leukemia patient primary cells Pat.9; assay: as above
In short: as §1

[22] = test system: HL-60; assay: area under dose-response curve (viability, 1 nM-10 uM) (fraction (0-1)); higher = more sensitive
In short: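 Area under the curve, where listed, was derived from four-parameter log-logistic fits with drc and PharmacoGx. These fits used CellTiter-Glo viability from HL-60 cells in RPMI 1640 with 10% FBS, normalised to DMSO wells and wells holding 10 μM proteasome inhibitor. The full library was rescreened on 384-well plates in duplicate at five tenfold concentrations, 1–10,000 nM, with DMSO or 100 nM of one of three metabolic inhibitors, for 72 h at 37 °C, 5% CO2.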

[23] = test system: myeloid leukemia patient primary cells Pat.5; assay: area under dose-response curve (viability, 1 nM-10 uM) (fraction (0-1)); higher = more sensitive
In short: as §1

## Cc1c2c(=O)n(-c3ccccc3Cl)[nH]c2cc(=O)n1Cc1ccccn1
[1]; 1 nM
  cell viability: 77.3%
[1]; 10 nM
  cell viability: 83.4%
[1]; 100 nM
  cell viability: 81.8%
[1]; 1000 nM
  cell viability: 95.5%
[1]; 10000 nM
  cell viability: 93%
[2]; 1 nM
  cell viability: 53.7%
[2]; 10 nM
  cell viability: 89.9%
[2]; 100 nM
  cell viability: 91.5%
[2]; 1000 nM
  cell viability: 96.7%
[2]; 10000 nM
  cell viability: 85.5%
[3]; 1 nM
  cell viability: 86.2%
[3]; 10 nM
  cell viability: 92.7%
[3]; 100 nM
  cell viability: 88.6%
[3]; 1000 nM
  cell viability: 94.6%
[3]; 10000 nM
  cell viability: > 100%
[4]; 1 nM
  cell viability: 13.2%
[4]; 10 nM
  cell viability: 82.9%
[4]; 100 nM
  cell viability: 63.7%
[4]; 1000 nM
  cell viability: 91%
[4]; 10000 nM
  cell viability: > 100%
[5]; 1 nM
  cell viability: 93.8%
[5]; 10 nM
  cell viability: 108%
[5]; 100 nM
  cell viability: 100%
[5]; 1000 nM
  cell viability: 99.9%
[5]; 10000 nM
  cell viability: 99.9%
[6]; 1 nM
  cell viability: 101%
[6]; 10 nM
  cell viability: 107%
[6]; 100 nM
  cell viability: 89.7%
[6]; 1000 nM
  cell viability: 71.9%
[6]; 10000 nM
  cell viability: 59.2%
[7]; 1 nM
  cell viability: 102%
[7]; 10 nM
  cell viability: 111%
[7]; 100 nM
  cell viability: 95.8%
[7]; 1000 nM
  cell viability: 100%
[7]; 10000 nM
  cell viability: 98.3%
[8]
  area under dose-response curve: 0.0358
[9]
  area under dose-response curve: < 0.0301
[10]
  area under dose-response curve: < 0.0301
[11]
  area under dose-response curve: < 0.0301
[12]
  area under dose-response curve: < 0.0301
[13]
  area under dose-response curve: < 0.0301
[14]
  area under dose-response curve: < 0.0301
[15]
  area under dose-response curve: < 0.0301
[16]
  area under dose-response curve: < 0.0301
[17]
  area under dose-response curve: < 0.0301
[18]
  area under dose-response curve: < 0.0301
[19]
  area under dose-response curve: < 0.0301
[20]
  area under dose-response curve: < 0.0301
[21]
  area under dose-response curve: < 0.0301

## Cc1[nH]nc(C(F)(F)F)c1Cc1sc2c(c1C(=O)N1C[C@](C)(O)CO1)c(=O)n(C)c(=O)n2C(C)C [AZD3965]
[1]; 1 nM
  cell viability: 84%
[1]; 10 nM
  cell viability: 98.8%
[1]; 100 nM
  cell viability: 92.7%
[1]; 1000 nM
  cell viability: 96.7%
[1]; 10000 nM
  cell viability: 93.6%
[2]; 1 nM
  cell viability: 93.1%
[2]; 10 nM
  cell viability: 89.5%
[2]; 100 nM
  cell viability: 97.5%
[2]; 1000 nM
  cell viability: 95.2%
[2]; 10000 nM
  cell viability: 93%
[3]; 1 nM
  cell viability: 97%
[3]; 10 nM
  cell viability: 87.2%
[3]; 100 nM
  cell viability: 99%
[3]; 1000 nM
  cell viability: 96.3%
[3]; 10000 nM
  cell viability: 98%
[4]; 1 nM
  cell viability: 64%
[4]; 10 nM
  cell viability: 45.1%
[4]; 100 nM
  cell viability: 93.6%
[4]; 1000 nM
  cell viability: 99.9%
[4]; 10000 nM
  cell viability: 98.5%
[5]; 1 nM
  cell viability: 89.5%
[5]; 10 nM
  cell viability: 120%
[5]; 100 nM
  cell viability: 113%
[5]; 1000 nM
  cell viability: 95.1%
[5]; 10000 nM
  cell viability: 102%
[6]; 1 nM
  cell viability: 89%
[6]; 10 nM
  cell viability: 106%
[6]; 100 nM
  cell viability: 138%
[6]; 1000 nM
  cell viability: 94.7%
[6]; 10000 nM
  cell viability: 81.6%
[7]; 1 nM
  cell viability: 95.3%
[7]; 10 nM
  cell viability: 112%
[7]; 100 nM
  cell viability: 114%
[7]; 1000 nM
  cell viability: 101%
[7]; 10000 nM
  cell viability: 105%
[22]; co-treatment: AZD3965 100 nM
  area under dose-response curve: < 0.0301
[22]; co-treatment: DMSO vehicle
  area under dose-response curve: < 0.0301
[22]; co-treatment: GSK2194069 100 nM
  area under dose-response curve: < 0.0301
[22]; co-treatment: pictilisib 100 nM
  area under dose-response curve: < 0.0301
[8]
  area under dose-response curve: 0.167
[9]
  area under dose-response curve: < 0.0301
[10]
  area under dose-response curve: < 0.0301
[11]
  area under dose-response curve: < 0.0301
[12]
  area under dose-response curve: < 0.0301
[13]
  area under dose-response curve: < 0.0301
[14]
  area under dose-response curve: < 0.0301
[15]
  area under dose-response curve: < 0.0301
[16]
  area under dose-response curve: < 0.0301
[17]
  area under dose-response curve: < 0.0301
[23]
  area under dose-response curve: 0.149
[18]
  area under dose-response curve: < 0.0301
[19]
  area under dose-response curve: < 0.0301
[20]
  area under dose-response curve: < 0.0301
[21]
  area under dose-response curve: < 0.0301
